Laboratory results taken from patent publication US7501413B2, “Dicarboxamide derivatives” (Hoffmann-La Roche Inc., priority 2004, dated 2009).

Target: T1, human factor Xa (Homo sapiens, UniProt P00742)
T1 construct: purchased Enzyme Research Laboratories
Assay: Factor Xa chromogenic peptide substrate assay (S-2222)
Type: biochemical
Conditions: human factor Xa 3 nM, chromogenic substrate S-2222 at 200 nM, HNPT buffer pH 7.8, room temperature; apparent Ki calculated from IC50 (Cheng-Prusoff), Km 613 μM
Description: Factor Xa activity was measured spectrophotometrically in microtiter plates in a final volume of 150 μl using the following conditions: Inhibition of human factor Xa (Enzyme Research Laboratories) was tested at an enzyme concentration of 3 nM using the chromogenic substrate S-2222 (Chromogenix AB, Mölndal, Sweden) at […]. The reaction kinetics of the enzyme and the substrate were linear with both time and the enzyme concentration. The inhibitors were dissolved in DMSO and tested at various concentrations up to 100 μM. The inhibitors were diluted using HNPT buffer consisting of HEPES 100 mM, NaCl 140 mM, PEG 6000 0.1% and Tween 80 0.02%, pH 7.8. The cleavage of S-2222 by human factor Xa was followed at 405 nm for 5 minutes at room temperature. The velocity of the reaction was determined by the autoreader from the slope of the linear regression fit to 7 time points (1 minute). The initial velocity for each inhibitor concentration was determined by the slope of at least 4 time points in the linear phase by a linear regression fit (mOD/min^2). Apparent dissociation constants Ki were calculated according to Cheng and Prusoff [Cheng, Y. C.; Prusoff, W. H. Relationship between the inhibition constant (Ks) and the concentration of the inhibitor that causes 50 percent inhibition (IC50) of an enzyme reaction. Biochem. Pharmacol. 1973, 22, 3099-3108.] based on the IC50 and the respective Km, determined previously (Ki=IC50/(1+S/Km)). The Km for the substrate used was determined under the conditions of the test with at least 5 substrate concentrations ranging from 0.5 to 15 times Km. [Lottenberg R, Hall J A, Blinder M, Binder E P, Jackson C M., The action of thrombin on peptide p-nitroanilide substrates. Substrate selectivity and examination of hydrolysis under different reaction conditions. Biochim Biophys Acta. 1983 Feb. 15; 742(3):539-57]. according to Eadie [Eadie G. S. The inhibition of cholinesterase by physostigmine and prostigmine. J. Biol. Chem. 1942, 146, 85-93.]. The Km for S-2222 amounted to 613 μM.

T1 sequence (P00742 235-488 limits assumed): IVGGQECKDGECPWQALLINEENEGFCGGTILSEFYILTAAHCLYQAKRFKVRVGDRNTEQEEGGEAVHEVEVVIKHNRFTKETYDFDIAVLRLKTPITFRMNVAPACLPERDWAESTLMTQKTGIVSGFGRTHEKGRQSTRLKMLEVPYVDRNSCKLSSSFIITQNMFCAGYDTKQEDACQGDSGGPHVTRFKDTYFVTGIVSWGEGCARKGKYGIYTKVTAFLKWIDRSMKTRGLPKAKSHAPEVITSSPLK
T1 sequence (P00742 41-179 partner limits assumed): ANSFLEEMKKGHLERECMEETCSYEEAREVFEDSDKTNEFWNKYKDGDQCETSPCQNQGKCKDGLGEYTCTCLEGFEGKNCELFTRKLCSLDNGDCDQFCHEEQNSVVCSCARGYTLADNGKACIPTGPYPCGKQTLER

SMILES: COC1(CO)C[C@H](C(=O)Nc2ccc(Cl)cc2)[C@@H](C(=O)Nc2ccc(-n3ccccc3=O)cc2F)C1 (single isomer, unassigned) [Example 47, (1S,2S,4S)- or (1S,2S,4R)-4-Hydroxymethyl-4-methoxy-cyclopentane-1,2-dicarboxylic acid 1-[(4-chloro-phenyl)-amide]2-{[2-fluoro-4-(2-oxo-2H-pyridin-1-yl)-phenyl]-amide}]
- Ki: 0.009 µM

SMILES: O=C(Nc1ccc(Cl)cc1)[C@H]1CC2(CC2)C[C@@H]1C(=O)Nc1ccc(-n2ccccc2=O)cc1F [Example 48, (5S,6S)-Spiro[2.4]heptane-5,6-dicarboxylic acid (4-chloro-phenyl)-amide [2-fluoro-4-(2-oxo-2H-pyridin-1-yl)-phenyl]-amide]
- Ki: 0.008 µM

SMILES: O=C(Nc1ccc(Cl)cc1)[C@H]1C[C@@H](O)C[C@H]1C(=O)Nc1ccc(-n2ccccc2=O)cc1F [Example 52, (1S,2S,4S)-4-Hydroxy-cyclopentane-1,2-dicarboxylic acid 1-[(4-chloro-phenyl)-amide]2-{[2-fluoro-4-(2-oxo-2H-pyridin-1-yl)-phenyl]-amide}]
- Ki: 0.013 µM
